Several values for one entry are separate records, joined by “and”; a condition that tells them apart may be missing. Equal entries are not always repeated. Toxic doses and inconclusive results are not listed.
System: CD2F1 mice, L1210 leukemia ip, survival T/C
Test: NCI In Vivo Anticancer Drug Screen. Data for tumor model L1210 Leukemia (intraperitoneal) in CD2F1 (CDF1) mice
Conditions: higher = longer survival
In short: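 Ratio T/C, where T is the treated-group value and C the vehicle-dosed control value, from mice implanted with a transplantable tumor.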

[1] = endpoint: mean survival time, dose: 50.0 mg/kg/injection, schedule: Q01DX009 (ip), vehicle: Klucel (hydroxypropylcellulose) (HPC)
[2] = endpoint: mean survival time, dose: 100.0 mg/kg/injection, schedule: Q01DX009 (ip), vehicle: Klucel (hydroxypropylcellulose) (HPC)
[3] = endpoint: mean survival time, dose: 200.0 mg/kg/injection, schedule: Q01DX009 (ip), vehicle: Klucel (hydroxypropylcellulose) (HPC)
[4] = endpoint: mean survival time, dose: 100.0 mg/kg/injection, schedule: Q01DX009 (ip), vehicle: saline
[5] = endpoint: mean survival time, dose: 200.0 mg/kg/injection, schedule: Q01DX009 (ip), vehicle: saline
[6] = endpoint: mean survival time, dose: 50.0 mg/kg/injection, schedule: Q01DX009 (ip), vehicle: saline
[7] = endpoint: mean survival time, dose: 100.0 mg/kg/injection, schedule: Q01DX009 (ip), vehicle: saline with Tween-80
[8] = endpoint: mean survival time, dose: 200.0 mg/kg/injection, schedule: Q01DX009 (ip), vehicle: saline with Tween-80
[9] = endpoint: mean survival time, dose: 400.0 mg/kg/injection, schedule: Q01DX009 (ip), vehicle: saline with Tween-80
[10] = endpoint: mean survival time, dose: 100.0 mg/kg/injection, schedule: Q01DX001 (ip), vehicle: saline with Tween-80
[11] = endpoint: mean survival time, dose: 400.0 mg/kg/injection, schedule: Q01DX001 (ip), vehicle: saline with Tween-80
[12] = endpoint: mean survival time, dose: 100.0 mg/kg/injection, schedule: Q04DX003 (ip), vehicle: saline with Tween-80
[13] = endpoint: mean survival time, dose: 200.0 mg/kg/injection, schedule: Q04DX003 (ip), vehicle: saline with Tween-80
[14] = endpoint: mean survival time, dose: 400.0 mg/kg/injection, schedule: Q04DX003 (ip), vehicle: saline with Tween-80

C=C1C(=O)OC2CCN3CC=C(COC(=O)C(C)(O)C4(CO4)C1C)C23 (stereo not drawn)
T/C (endpoint: mean survival time, dose: 75.0 mg/kg/injection, schedule: Q01DX001 (ip), vehicle: saline): 107 % of control

Cc1ccc(S(=O)(=O)NN2CCOC2=O)cc1
T/C [1]: 100 % of control
T/C [2]: 91 % of control
T/C [3]: 100 % of control

NC(=O)NOCc1ccc([N+](=O)[O-])cc1
T/C [4]: 97 % of control
T/C [5]: 96 % of control
T/C (endpoint: mean survival time, dose: 400.0 mg/kg/injection, schedule: Q01DX009 (ip), vehicle: saline): 95 % of control

O=C(O)C(Br)CC(Br)C(=O)O (stereo not drawn)
T/C [6]: 93 % of control
T/C [4]: 93 % of control

CC(=O)Nc1ccc(/C=C(\C#N)c2ccc(C)cc2)cc1
T/C [7]: 89 % of control
T/C [8]: 91 % of control
T/C [9]: 100 % of control

O=C1/C(=C\c2ccccc2)Oc2cc(O)c(O)cc21
T/C (endpoint: mean survival time, dose: 25.0 mg/kg/injection, schedule: Q01DX001 (ip), vehicle: saline with Tween-80): 100 % of control
T/C (endpoint: mean survival time, dose: 50.0 mg/kg/injection, schedule: Q01DX001 (ip), vehicle: saline with Tween-80): 104 % of control
T/C [10]: 100 % of control

O=C(/C=C/c1ccc(Cl)cc1)/C=C/c1ccc(Cl)cc1
T/C [1]: 94 % of control
T/C [2]: 98 % of control
T/C [3]: 94 % of control

C#CCNc1ncnc2c1ncn2C1OC(CO)C(O)C1O (stereo not drawn)
T/C (endpoint: mean survival time, dose: 12.5 mg/kg/injection, schedule: Q01DX005 (ip), vehicle: other): 96 % of control
T/C (endpoint: mean survival time, dose: 25.0 mg/kg/injection, schedule: Q01DX005 (ip), vehicle: other): 97 % of control
T/C (endpoint: mean survival time, dose: 50.0 mg/kg/injection, schedule: Q01DX005 (ip), vehicle: other): 111 % of control
T/C (endpoint: mean survival time, dose: 100.0 mg/kg/injection, schedule: Q01DX005 (ip), vehicle: other): 114 % of control
T/C (endpoint: mean survival time, dose: 200.0 mg/kg/injection, schedule: Q01DX005 (ip), vehicle: other): 111 % of control

Nc1ccc(OCCc2c(N)nc(N)nc2N)cc1
T/C (endpoint: mean survival time, dose: 100.0 mg/kg/injection, schedule: Q04DX002 (ip), vehicle: Klucel (hydroxypropylcellulose) (HPC)): 98 % of control
T/C (endpoint: mean survival time, dose: 200.0 mg/kg/injection, schedule: Q04DX002 (ip), vehicle: Klucel (hydroxypropylcellulose) (HPC)): 102 % of control
T/C (endpoint: mean survival time, dose: 400.0 mg/kg/injection, schedule: Q04DX002 (ip), vehicle: Klucel (hydroxypropylcellulose) (HPC)): 98 % of control

Cc1cc(N(CCOS(C)(=O)=O)CCOS(C)(=O)=O)ccc1N=O
T/C (endpoint: mean survival time, dose: 0.25 mg/kg/injection, schedule: Q01DX015 (ip), vehicle: saline): 119 % of control
T/C (endpoint: mean survival time, dose: 0.5 mg/kg/injection, schedule: Q01DX015 (ip), vehicle: saline): 121 % of control
T/C (endpoint: mean survival time, dose: 1.0 mg/kg/injection, schedule: Q01DX010 (ip), vehicle: saline): 101 % of control
T/C (endpoint: mean survival time, dose: 1.0 mg/kg/injection, schedule: Q01DX015 (ip), vehicle: saline): 116 % of control
T/C (endpoint: mean survival time, dose: 2.0 mg/kg/injection, schedule: Q01DX015 (ip), vehicle: saline): 97 % of control

COc1ccc(C2=NCCc3cc(OC)c(OC)cc32)cc1OC
T/C (endpoint: mean survival time, dose: 12.5 mg/kg/injection, schedule: Q01DX009 (ip), vehicle: other): 90 % of control
T/C (endpoint: mean survival time, dose: 25.0 mg/kg/injection, schedule: Q01DX009 (ip), vehicle: other): 92 % of control

CC([NH-])Cc1ccccc1.CC([NH-])Cc1ccccc1.[Cl][Pt+2][Cl] (stereo not drawn)
T/C (endpoint: mean survival time, dose: 3.13 mg/kg/injection, schedule: Q04DX003 (ip), vehicle: distilled water + Tween-80): 96 % of control
T/C (endpoint: mean survival time, dose: 6.25 mg/kg/injection, schedule: Q04DX003 (ip), vehicle: distilled water + Tween-80): 96 % of control
T/C (endpoint: mean survival time, dose: 12.5 mg/kg/injection, schedule: Q04DX003 (ip), vehicle: distilled water + Tween-80): 96 % of control
T/C (endpoint: mean survival time, dose: 25.0 mg/kg/injection, schedule: Q04DX003 (ip), vehicle: distilled water + Tween-80): 86 % of control
T/C (endpoint: mean survival time, dose: 50.0 mg/kg/injection, schedule: Q04DX003 (ip), vehicle: distilled water + Tween-80): 86 % of control
T/C (endpoint: mean survival time, dose: 100.0 mg/kg/injection, schedule: Q04DX003 (ip), vehicle: distilled water + Tween-80): 96 % of control
T/C (endpoint: mean survival time, dose: 200.0 mg/kg/injection, schedule: Q04DX003 (ip), vehicle: distilled water + Tween-80): 89 % of control

CCOC(=O)NC(=S)n1ncnc1N
T/C (endpoint: mean survival time, dose: 12.5 mg/kg/injection, schedule: Q04DX003 (ip), vehicle: saline): 97 % of control
T/C (endpoint: mean survival time, dose: 25.0 mg/kg/injection, schedule: Q04DX003 (ip), vehicle: saline): 102 % of control

CC(C(=O)O)C(=O)O.[NH-]CC[NH-].[Pt+2]
T/C (endpoint: mean survival time, dose: 60.0 mg/kg/injection, schedule: Q04DX003 (ip), vehicle: water): 116 % of control

O=S(CCCCO)c1ccccc1 (stereo not drawn)
T/C (endpoint: mean survival time, dose: 50.0 mg/kg/injection, schedule: Q04DX002 (ip), vehicle: saline): 101 % of control
T/C (endpoint: mean survival time, dose: 100.0 mg/kg/injection, schedule: Q04DX002 (ip), vehicle: saline): 104 % of control
T/C (endpoint: mean survival time, dose: 200.0 mg/kg/injection, schedule: Q04DX002 (ip), vehicle: saline): 96 % of control

O=C(c1ccccc1)C1C(C(=O)c2ccccc2)C1c1ccccc1 (stereo not drawn)
T/C [10]: 87 % of control
T/C (endpoint: mean survival time, dose: 200.0 mg/kg/injection, schedule: Q01DX001 (ip), vehicle: saline with Tween-80): 90 % of control
T/C [11]: 93 % of control

CCC1(O)C(=O)OCc2c1cc1n(c2=O)Cc2cc3ccc([N+](=O)[O-])cc3nc2-1 (stereo not drawn)
T/C (endpoint: median survival time, dose: 10.0 mg/kg/injection, schedule: Q04DX002 (ip), vehicle: saline with Tween-80): 114 % of control

CC(=O)OC1CCCCC1OC(C)=O (stereo not drawn)
T/C (endpoint: mean survival time, dose: 50.0 mg/kg/injection, schedule: Q01DX009 (ip), vehicle: saline with Tween-80): 92 % of control
T/C [7]: 92 % of control
T/C [8]: 103 % of control

COc1ccc(CNc2ccc([N+](=O)[O-])c3nonc23)cc1
T/C [1]: 94 % of control
T/C [2]: 86 % of control
T/C [3]: 94 % of control

c1ccc2c(-c3nn[nH]n3)nccc2c1
T/C (endpoint: mean survival time, dose: 100.0 mg/kg/injection, schedule: Q01DX001 (ip), vehicle: saline): 106 % of control
T/C (endpoint: mean survival time, dose: 200.0 mg/kg/injection, schedule: Q01DX001 (ip), vehicle: saline): 113 % of control

C=C1C(=O)O[C@@H]2[C@H]1CC[C@H](C)[C@]1(O)CCC(=O)[C@@]21C
T/C [7]: 98 % of control
T/C [8]: 101 % of control
T/C [9]: 110 % of control

COc1ccc(CCNC(=O)Cc2ccc3cc(OC)c(OC)cc3c2)cc1OC
T/C [7]: 91 % of control
T/C [12]: 95 % of control
T/C [8]: 89 % of control
T/C [13]: 100 % of control

CC(CN=Cc1ccccc1[NH-])N=Cc1ccccc1[NH-].[Ni+2] (stereo not drawn)
T/C (endpoint: mean survival time, dose: 6.25 mg/kg/injection, schedule: Q04DX002 (ip), vehicle: saline with Tween-80): 94 % of control
T/C (endpoint: mean survival time, dose: 12.5 mg/kg/injection, schedule: Q04DX002 (ip), vehicle: saline with Tween-80): 94 % of control
T/C (endpoint: mean survival time, dose: 25.0 mg/kg/injection, schedule: Q04DX002 (ip), vehicle: saline with Tween-80): 97 % of control
T/C (endpoint: mean survival time, dose: 50.0 mg/kg/injection, schedule: Q04DX002 (ip), vehicle: saline with Tween-80): 94 % of control and 109 % of control

CC(=O)[O][Hg][c]1cc(-c2ccc(N=Nc3c(S(=O)(=O)O)cc4cccc(N)c4c3O)cc2)ccc1N=Nc1c(S(=O)(=O)O)cc2cccc(N)c2c1O
T/C (endpoint: mean survival time, dose: 6.25 mg/kg/injection, schedule: Q04DX003 (ip), vehicle: saline with Tween-80): 98 % of control
T/C (endpoint: mean survival time, dose: 12.5 mg/kg/injection, schedule: Q04DX003 (ip), vehicle: saline with Tween-80): 96 % of control
T/C (endpoint: mean survival time, dose: 25.0 mg/kg/injection, schedule: Q04DX003 (ip), vehicle: saline with Tween-80): 104 % of control

OC(c1ccccc1)(c1ccccc1)c1cc2ccccc2[nH]1
T/C [10]: 89 % of control
T/C [11]: 89 % of control

COc1ccc2ccccc2c1/C=N/N1CCCCC1
T/C [12]: 102 % of control
T/C [13]: 102 % of control
T/C [14]: 96 % of control

COC(=O)C(C(=O)OC)=C(C(=O)OC)C(=O)OC
T/C [7]: 96 % of control
T/C [8]: 96 % of control
T/C [9]: 94 % of control

CC(=O)COc1cccc(C)c1
T/C [12]: 100 % of control
T/C [13]: 103 % of control
T/C [14]: 93 % of control

NCCSCC(N)C(=O)O (stereo not drawn)
T/C [6]: 100 % of control
T/C [4]: 100 % of control
T/C [5]: 104 % of control

CC(=O)/C(=C\c1ccccc1)CNC1CCCCC1
T/C (endpoint: mean survival time, dose: 6.25 mg/kg/injection, schedule: Q01DX001 (ip), vehicle: saline with Tween-80): 96 % of control
T/C (endpoint: mean survival time, dose: 12.5 mg/kg/injection, schedule: Q01DX001 (ip), vehicle: saline with Tween-80): 104 % of control

Reference: PubChem BioAssay AID256 (DTP/NCI, 2004)
